Measured values as given in patent US7700657B2, “Vitamin D analogs” (Galderma Research & Development, priority 2001, dated 2010).
Like-named read-outs stand apart in the source and are kept apart here.

Columns and labels:
human VDR receptor = biological target: T1, human VDR receptor (Homo sapiens, UniProt P11473); test: Transactivation potential: VDR agonist activity, HeLa cotransfection with p240Hase-CAT reporter; type: cell-based; conditions: dose giving 50% of maximum activity, HeLa cells, 18 hours treatment
T1 construct: expressed in transfected cells; host or cells: HeLa
T1 sequence (P11473 1-427): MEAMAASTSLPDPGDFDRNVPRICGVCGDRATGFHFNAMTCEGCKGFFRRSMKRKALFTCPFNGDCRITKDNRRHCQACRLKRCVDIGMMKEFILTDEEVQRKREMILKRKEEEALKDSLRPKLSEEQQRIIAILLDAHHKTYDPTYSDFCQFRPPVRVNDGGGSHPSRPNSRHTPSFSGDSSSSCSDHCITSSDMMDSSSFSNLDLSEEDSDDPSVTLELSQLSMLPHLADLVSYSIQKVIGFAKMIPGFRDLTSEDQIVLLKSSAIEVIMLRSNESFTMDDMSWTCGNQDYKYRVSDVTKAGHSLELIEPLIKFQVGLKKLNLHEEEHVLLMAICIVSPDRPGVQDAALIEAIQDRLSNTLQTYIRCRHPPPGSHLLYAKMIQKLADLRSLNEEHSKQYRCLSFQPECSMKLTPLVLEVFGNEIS
Description: By way of example, the VDR agonist activity can be tested on the HeLa cell line by cotransfection of an expression vector for the human VDR receptor and of the reporter plasmid p240Hase-CAT. The agonist activity can be characterized in this cotransfection system by the determination of the dose necessary to obtain 50% of the maximum activity of the product (AC50). The detail of the protocol of this test as well as the results obtained with the compounds according to the invention are described in example 7 of the present application.
The VDR agonist activity can be tested on the HeLa cell line, by cotransfection of an expression vector of the human VDR receptor and of the p240Hase-CAT reporter plasmid which contains the region −1399 to +76 of the rat 24-hydroxylase promoter, cloned upstream of the phase coding for the chloramphenicol acetyltransferase (CAT) gene. 18 hours after cotransfection, the test product is added to the medium. After treatment for 18 hours, the measurement of the CAT activity of the cell lysates is carried out by means of an Elisa test (Enzyme Linked Immuno Sorbent Essay, test marketed by Roche Molecular Biochemicals). The agonist activity can be characterized in this cotransfection system by the determination of the dose necessary in order to obtain 50% of the maximum activity of the product (AC50).

[1] = system: HL60 promyelocytic leukemia cells; test: Induction of differentiation of HL60 cells (NBT reduction); type: cell-based; conditions: 4 days culture, NBT-positive cells, read-out: Activation of Differentiation AC 50
Description: The biological properties analogous to vitamin D can likewise be measured by the capacity of the product to induce the differentiation of HL60 promyelocytic leukemia cells. The protocol of this test as well as the results obtained with the compounds according to the invention are described in example 9 of the present application.
Calcitriol induces the differentiation of promyelocytic leukemia cells (HL60) in monocytes/macrophages. This differentiation inductor effect is a well-characterized marker of cellular vitamin D activity. One of the most important antimicrobial products of macrophages is hydrogen peroxide, which can be analyzed experimentally by the reduction of NBT (Nitroblue Tetrazolium).
The method used is the following: The HL60 cells are inoculated into 6-well plates and then treated immediately with the compounds to be tested. After 4 days in culture, the cells are incubated with phorbol TPA ester and NBT for a short period and the differentiated cells, i.e., positive to NBT, are counted.

24-hydroxylase = test: In vivo induction of 24-hydroxylase mRNA in SKH mice after single topical application; conditions: for Induction in % vs Induction Calcitriol Tested at 0.01%: topical, 8 hours; for MRNA EXPRESSION OF 24-HYDROXYLASE Induction Factor Versus Ethanol: 50 μl, epidermis 8 hours after application
Description: The agonist activity on vitamin D receptors of the compounds of the invention can be likewise evaluated “in vivo” by induction of 24-hydroxylase in SKH mice. (Kang et. al., Journal of Investigative Dermatology, 1997, 108(4), 513-518). The test protocol used as well as the results obtained with the compounds according to the invention are described in example 10 of the present application. 1]:
Consequently, the agonist activity on receptors of vitamin D of the compounds of the invention can be evaluated “in vivo” by induction of 24-hydroxylase in SKH mice.
The method used is the following: […] mice receive a single topical application of a compound to be tested in solution in ethanol at increasing concentrations. A volume of 50 μl of the product to be tested or of the vehicle alone is applied on the back of the mice with the aid of a pipette.
Other SKH mice receive a single topical application of calcitriol in solution in ethanol at increasing concentrations. A volume of 50 μl of the product to be tested or of the vehicle alone is applied on the back of the mice with the aid of a pipette.
8 hours after topical application, the mice are euthanized, the treated skin is removed and the epidermidis is separated from the dermis. The quantification of the MRNA of the 24-Hydroxylase is carried out by semiquantitative PCR. The results are standardized with respect to the expression of the mRNA of GAPDH and the values for the different concentrations of calcitriol tested and, for the different compounds of the invention tested, are expressed as an induction factor with respect to calcitriol.

[2] = system: normal human keratinocytes; test: Inhibition of proliferation of normal human keratinocytes (BrdU incorporation); type: cell-based; conditions: 5 days culture
Description: The biological properties analogous to vitamin D can likewise be measured by the capacity of the product to inhibit the proliferation of normal human keratinocytes (NHK in culture). The product is added to NHK cultured under conditions favoring the proliferative state. The product is left in contact with the cells for five days. The number of proliferative cells is measured by incorporation of bromodeoxyuridine (BRdU) into the DNA. The protocol of this test as well as the results obtained with the compounds according to the invention are described in example 8 of the present application.
It is known that 1,25-dihydroxyvitamin D3, called calcitriol and corresponding to natural vitamin D, inhibits the proliferation of human keratinocytes in culture. The method used is the following: the normal human keratinocytes are inoculated at low density into a 24-well plate. After 4 hours, the compounds to be tested are added to the culture medium. After culturing for 5 days, the proliferation of the keratinocytes is determined by incorporation of 5-bromo-2′ deoxyuridine (BrdU) in the DNA. The quantity of BrdU incorporated is then quantified by using the Elisa test (Enzyme Linked Immuno Sorbent Essay, test marketed by Roche Molecular Biochemicals).
The inhibitory effect on the proliferation of the keratinocytes of the compounds according to the invention and of the calcitriol used as a reference compound is summarized in table II which follows.

[3] = compound tested at 0.01% (weight/volume)

Row | Compound | AC50 (human VDR receptor) [nM] | AC50 ([1]; Homo sapiens, HL-60, 96 h) [nM] | IC50 ([2]; Keratinocyte, 120 h) [nM] | Induction in % vs Induction Calcitriol Tested at 0.01% (24-hydroxylase; [3]) [%] | other results
1 | CC/C(=C\C=C\C(O)(C(F)(F)F)C(F)(F)F)c1cccc(OCc2ccc(CO)c(CO)c2)c1 [Example 3, (3E,5E)-6-[3-(3,4-Bis-hydroxymethylbenzyloxy)pheny]-1,1,1-trifluoro-2 trifluoromethylocta-3,5-dien-2-ol] | 7 | 7 | 35 |  | Induction in % vs Induction Calcitriol Tested at 0.01% (24-hydroxylase; compound tested at 0.001% (weight/volume)): 59%; activity (24-hydroxylase induction) compared with calcitriol (24-hydroxylase; in words): very superior
2 | CC/C(=C\C=C\C(O)(C(F)(F)F)C(F)(F)F)c1cccc(CCc2ccc(CO)c(CO)c2)c1 [Example 5, (3E,5E)-6-{3-[2-(3,4-Bis-hydroxymethylphenyl)ethyl]-phenyl}-1,1,1-trifluoro-2-trifluoromethylocta-3,5-dien-2-ol] | 3 | 5 | 8 |  | Induction in % vs Induction Calcitriol Tested at 0.01% (24-hydroxylase; compound tested at 0.0003% (weight/volume)): 106%
3 | 1,25-dihydroxyvitamin D3 [Calcitriol, reference compound] |  |  |  | 100 | AC50 [1]: 7 nM; MRNA EXPRESSION OF 24-HYDROXYLASE Induction Factor Versus Ethanol (24-hydroxylase; topical 0.0001% (weight/volume) in ethanol): 6.7; MRNA EXPRESSION OF 24-HYDROXYLASE Induction Factor Versus Ethanol (24-hydroxylase; topical 0.001% (weight/volume) in ethanol): 10.3; MRNA EXPRESSION OF 24-HYDROXYLASE Induction Factor Versus Ethanol (24-hydroxylase; topical 0.01% (weight/volume) in ethanol): 20.1; MRNA EXPRESSION OF 24-HYDROXYLASE Induction Factor Versus Ethanol (24-hydroxylase; topical 0.1% (weight/volume) in ethanol): 26; IC50 [2]: 14 nM
4 | CC/C(=C\C#CC(O)(C(F)(F)F)C(F)(F)F)c1cccc(OCc2ccc(CO)c(CO)c2)c1 [Example 2, (E)-6-[3-{3,4-Bis-hydroxymethylbenzyloxy)phenyl]-1,1,1-trifluoro-2-tifluoromethyloct-5-en-3-yn-2-ol] | 77 |  | 153 | 58 | 
5 | CC/C(=C\C#CC(O)(C(F)(F)F)C(F)(F)F)c1cccc(CCc2ccc(CO)c(CO)c2)c1 [Example 4, (E)-6-{3-[2-(3,4-Bis-hydroxymethylphenyl)ethyl]phenyl}-1,1,1-trifluoro-2-trifluoromethyloct-5-en-3-yn-2-ol] | 16 |  | 29 | 89 | 
6 | CC/C(=C\C=C\C(O)(CC)CC)c1cccc(CCc2ccc(CO)c(CO)c2)c1 [Example 1, (4E,6E)-7-{3-[2-(3,4-Bis-hydroxymethylphenyl)ethyl]-phenyl}-3-ethylnona-4,6-dien-3-ol] | 39 | 56 | 45 |  | Induction in % vs Induction Calcitriol Tested at 0.01% (24-hydroxylase; compound tested at 0.1% (weight/volume)): 108%
